According to publication PMC8617031, “Development of a BCL-xL and BCL-2 dual degrader with improved anti-leukemic activity,” (Nature Communications, 2021):
Several values for one entry are separate records, joined by “and”; a condition that tells them apart may be missing. Equal entries are not always repeated. Where two headings read alike, the source gives them in different places.

How the values were obtained:
BCL-2 = target: T1, BCL-2 (Homo sapiens, UniProt P10415); test: BCL-2 degradation by immunoblot in Kasumi-1 cells; assay type: cell-based; conditions: Fig. 7b; for BCL-2 level, bar graph (0 = 100): two replicate columns
T1 construct: endogenous in cells
Method: (§1) Tubulin was used as an equal loading control. […] For the viability assays, the data are presented as mean ± s.d. from three replicate cell cultures in a representative experiment. Similar results were also observed in two additional independent experiments. d Representative immunoblot analyses of Kasumi-1 cells 16 h after treatment as indicated. […] Data are representative of two independent experiments. The dotted line represents the value from DMSO-treated cells. Source data are provided as a Source data file.
(§2) Cells were collected, washed once with ice-cold phosphate-buffered saline, pH 7.2 (PBS, cat. no. 20012027; Thermo Fisher Scientific) and lysed in RIPA lysis buffer (Cat. No. BP-115DG, Boston Bio Products, Ashland, MA, USA) supplemented with protease and phosphatase inhibitor cocktails (Cat. No. PPC1010, Sigma-Aldrich, St. Louis, MO, USA) through sonication. The samples were centrifuged at 14,000 r.p.m. for 5 min and the supernatants were transferred into a new tube. The protein concentration in the supernatants was determined using the Pierce BCA protein Assay kit (cat. no. 23225, Thermo Fisher Scientific). The protein concentration was normalized, and the samples were reduced in 4× Laemmli’s SDS-sample buffer (cat. no. BP-110R, Boston Bio Products) and denatured at 95 °C for 5 min. An equal amount of protein samples (20–40 μg per lane) were resolved using precast 4–20% Tris-glycine gels (Mini-PROTEAN TGX, cat. no. 456–1094, Bio-Rad), and resolved proteins were transferred onto 0.2-µm pore size polyvinylidene difluoride (PVDF) blotting membranes (cat. no. LC2002, Thermo Fisher Scientific) using mini trans-blot electrophoretic transfer cell (Bio-Rad). The membranes were blocked with non-fat dry milk (5% wt/vol) in 1× Tris-buffered saline-Tween-20 (TBST, cat. no. J77500, Affymetrix) for 1 h at room temperature, and were subsequently probed with primary antibodies at a predetermined optimal concentration in non-fat dry milk (5% wt/vol in TBST) overnight at 4 °C. The membranes were washed three times (5 min each) in TBST and then incubated with horse radish peroxidase (HRP)-conjugated secondary antibodies for 1 h at room temperature. Following sufficient washing with TBST, the membranes were exposed with chemiluminescent HRP substrate (cat. no. WBKLS0500, MilliporeSigma), and the signal was detected using the ChemiDoc MP Imaging System (Bio-Rad) and quantified using the ImageJ (v1.53a) software from NIH.

BCL-xL = target: T2, BCL-xL (Homo sapiens, UniProt Q07817); test: BCL-xL degradation by immunoblot in Kasumi-1 cells; assay type: cell-based; conditions: Fig. 7b; for BCL-xL level, bar graph (0 = 100): two replicate columns
T2 construct: endogenous in cells
Method: as §1, §2

[1] = Viability (MTS) of Hela cells; assay type: cell-based, human; conditions: human, Hela cells; for viability at 72 h, 0.00137174 uM: MTS absorbance 490, Conc 0.00137174 uM; for viability at 72 h, 0.00411523 uM: MTS absorbance 490, Conc 0.00411523 uM; for viability at 72 h, 0.037037 uM: MTS absorbance 490, Conc 0.037037 uM; for viability at 72 h, 0.111111 uM: MTS absorbance 490, Conc 0.111111 uM; for viability at 72 h, 0.333333 uM: MTS absorbance 490, Conc 0.333333 uM; for viability at 72 h, 1 uM: MTS absorbance 490, Conc 1 uM; for viability at 72 h, 3 uM: MTS absorbance 490, Conc 3 uM
Method: Suspension cells were treated 30 min after seeding, whereas adherent cells were allowed to adhere overnight and were then treated. Compound treatments were prepared in complete cell culture medium and 100 µl of 2× treatment-containing medium were added to each well. Complete cell culture medium without treatment was added in control wells, and wells containing medium without cells served as background. The outer wells of the 96-well plate were not used for treatment and were filled with 250 µl of PBS to reduce evaporation of medium from inner wells. Each compound and/or combination was tested at nine different concentrations with three replicates. The cell viability was measured after 72 h by tetrazolium-based MTS assay. MTS reagent (2 mg ml^–1 stock; cat. no. G1111, Promega) was freshly supplemented with phenazine methosulfate (PMS, 0.92 mg ml^–1 stock, cat. no. P9625, Sigma-Aldrich) in 20:1 ratio, and 20 µl of this mixture was added to each control and treatment well. The cells were incubated for 4 h at 37 °C and 5% CO2, and then the absorbance was recorded at 490 nm using Biotek’s Synergy Neo2 multimode plate reader (Biotek). The average absorbance value of background wells was subtracted from absorbance value of each control and treatment well, and percent cell viability ((At/A0) × 100)) was determined in each treatment well, where At is the absorbance value of the treatment well and A0 is the average absorbance value of control wells after background subtraction. The data were expressed as average percentage cell viability and fitted in non-linear regression curves using GraphPad Prism 7 (GraphPad Software, La Jolla, CA, USA).

[2] = read-out: cell viability normalised to control wells (mean of three replicates)
[3] = read-out: cell viability normalised to control wells (single replicate)

T2 sequence (Q07817 whole entry): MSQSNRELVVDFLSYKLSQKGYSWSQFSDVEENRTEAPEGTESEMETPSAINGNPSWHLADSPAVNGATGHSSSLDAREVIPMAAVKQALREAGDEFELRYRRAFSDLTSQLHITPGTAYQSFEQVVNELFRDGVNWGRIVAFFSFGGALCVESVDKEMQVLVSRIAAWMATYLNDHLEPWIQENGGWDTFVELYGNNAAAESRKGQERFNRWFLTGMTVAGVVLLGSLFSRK
T1 sequence (P10415 whole entry): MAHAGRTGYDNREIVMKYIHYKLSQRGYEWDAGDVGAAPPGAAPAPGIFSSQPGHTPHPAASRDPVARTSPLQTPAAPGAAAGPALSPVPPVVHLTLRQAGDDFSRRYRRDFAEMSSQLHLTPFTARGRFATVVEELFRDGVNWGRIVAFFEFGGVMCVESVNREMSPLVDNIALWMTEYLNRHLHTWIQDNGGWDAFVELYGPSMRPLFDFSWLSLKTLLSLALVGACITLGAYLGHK

Row | Compound | BCL-2 level, bar graph (0 = 100) (BCL-2; concentration 0.01) | BCL-2 level, bar graph (0 = 100) (BCL-2; concentration 0.03) | BCL-2 level, bar graph (0 = 100) (BCL-2; concentration 0.1) | BCL-2 level, bar graph (0 = 100) (BCL-2; concentration 0.3) | BCL-2 level, bar graph (0 = 100) (BCL-2; concentration 1) | BCL-xL level, bar graph (0 = 100) (BCL-xL; concentration 0.01) | BCL-xL level, bar graph (0 = 100) (BCL-xL; concentration 0.03) | BCL-xL level, bar graph (0 = 100) (BCL-xL; concentration 0.1) | BCL-xL level, bar graph (0 = 100) (BCL-xL; concentration 0.3) | BCL-xL level, bar graph (0 = 100) (BCL-xL; concentration 1) | viability at 72 h, 0.00137174 uM [1, 2] [%] | viability at 72 h, 0.00137174 uM [1, 3] [%] | viability at 72 h, 0.00411523 uM [1, 2] [%] | viability at 72 h, 0.00411523 uM [1, 3] [%] | viability at 72 h, 0.037037 uM [1, 2] [%] | viability at 72 h, 0.037037 uM [1, 3] [%] | viability at 72 h, 0.111111 uM [1, 2] [%] | viability at 72 h, 0.333333 uM [1, 2] [%] | viability at 72 h, 0.333333 uM [1, 3] [%] | viability at 72 h, 1 uM [1, 2] [%] | also measured
1 | Cc1ncsc1-c1ccc([C@H](C)NC(=O)[C@@H]2C[C@@H](O)CN2C(=O)[C@@H](NC(=O)CCCCCCC(=O)N2CCN(C[C@]3(C)CCC(c4ccc(Cl)cc4)=C(CN4CCN(c5ccc(C(=O)NS(=O)(=O)c6ccc(N[C@H](CCN7CCOCC7)CSc7ccccc7)c(S(=O)(=O)C(F)(F)F)c6)cc5)CC4)C3)CC2)C(C)(C)C)cc1 [753b] | 66 and 60 | 44 and 48 | 36 and 21 | 32 and 26 | 36 and 25 | 38 and 35 | 15 and 18 | 8 and 6 | 7 and 5 | 6 and 5 | – | – | – | – | – | – | – | – | – | – | BCL-2 degradation in Kasumi-1 cells (in words) (BCL-2; Kasumi-1 cells, 16 h): could also degrade BCL-2; BCL-xL degradation in Kasumi-1 cells (in words) (BCL-xL; Kasumi-1 cells, 16 h, compared with DT2216): more potent BCL-xL degradation
2 | CC1(C)CCC(c2ccc(Cl)cc2)=C(CN2CCN(c3ccc(C(=O)NS(=O)(=O)c4ccc(N[C@H](CCN5CCOCC5)CSc5ccccc5)c(S(=O)(=O)C(F)(F)F)c4)cc3)CC2)C1 [ABT263, navitoclax] | – | – | – | – | – | – | – | – | – | – | 108 | 115 | 99.8 | 106 | 97 | 103 | 89.9 | 80.4 | 80.9 | 81 | viability at 72 h, 1 uM [1, 3]: 76.8%; viability at 72 h, 3 uM [1, 2]: 80.1%; viability at 72 h, 3 uM [1, 3]: 83.1%
3 | Cc1ncsc1-c1ccc([C@H](C)NC(=O)[C@@H]2C[C@@H](O)CN2C(=O)[C@@H](NC(=O)CCCCCC(=O)N2CCN(CC[C@H](CSc3ccccc3)Nc3ccc(S(=O)(=O)NC(=O)c4ccc(N5CCN(CC6=C(c7ccc(Cl)cc7)CCC(C)(C)C6)CC5)cc4)cc3S(=O)(=O)C(F)(F)F)CC2)C(C)(C)C)cc1 [DT2216] | 96 and 105 | 90 and 102 | 92 and 98 | 91 and 99 | 80 and 89 | 86 and 92 | 59 and 63 | 38 and 33 | 22 and 25 | 11 and 12 | 87.9 | 92.3 | 90.6 | 96.4 | 88.1 | 89.4 | 89.7 | 96.4 | 102 | 82.9 | viability at 72 h, 0.111111 uM [1, 3]: 92.2%; viability at 72 h, 1 uM [1, 3]: 80.4%; viability at 72 h, 3 uM [1, 2]: 82.1%; viability at 72 h, 3 uM [1, 3]: 78.4%
